Consider 13 molecules from ChEMBL document CHEMBL3991601, “The target landscape of clinical kinase drugs” (Science, 2017).

The source made the active and inactive calls. For most assays here, no stated cut-off is given here; in the data, actives have a measured Kd and inactives only a lower limit. Some results are limits rather than exact numbers.

In one experiment the target is Ephrin type-A receptor 4 (Homo sapiens, UniProt P54764).
The target in another experiment is T1, dCTP pyrophosphatase 1 (Homo sapiens, UniProt Q9H773).
T1 sequence (Q9H773 whole entry): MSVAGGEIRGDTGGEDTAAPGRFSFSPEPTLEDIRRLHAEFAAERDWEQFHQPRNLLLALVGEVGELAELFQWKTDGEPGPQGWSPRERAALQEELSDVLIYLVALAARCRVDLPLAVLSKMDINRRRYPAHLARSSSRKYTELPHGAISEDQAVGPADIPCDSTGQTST

Another experiment concerns the target T2, Activin receptor type-1 (Homo sapiens, UniProt Q04771).
T2 sequence (Q04771 whole entry): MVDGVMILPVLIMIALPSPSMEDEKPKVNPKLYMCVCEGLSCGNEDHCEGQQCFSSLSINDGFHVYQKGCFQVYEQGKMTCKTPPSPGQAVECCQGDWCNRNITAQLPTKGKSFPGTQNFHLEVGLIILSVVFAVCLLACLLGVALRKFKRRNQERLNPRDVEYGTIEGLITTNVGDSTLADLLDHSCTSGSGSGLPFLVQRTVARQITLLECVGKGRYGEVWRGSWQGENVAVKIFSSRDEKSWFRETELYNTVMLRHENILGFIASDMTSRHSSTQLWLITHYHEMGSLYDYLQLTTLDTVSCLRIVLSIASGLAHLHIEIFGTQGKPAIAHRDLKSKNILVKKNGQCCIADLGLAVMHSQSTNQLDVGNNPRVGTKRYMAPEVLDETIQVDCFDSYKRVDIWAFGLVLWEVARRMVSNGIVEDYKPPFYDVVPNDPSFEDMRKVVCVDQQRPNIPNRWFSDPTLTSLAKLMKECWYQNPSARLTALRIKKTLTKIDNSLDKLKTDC

For experiment [1], the target named is T3, DNA replication licensing factor MCM4 (Homo sapiens, UniProt P33991).
T3 sequence (P33991 whole entry): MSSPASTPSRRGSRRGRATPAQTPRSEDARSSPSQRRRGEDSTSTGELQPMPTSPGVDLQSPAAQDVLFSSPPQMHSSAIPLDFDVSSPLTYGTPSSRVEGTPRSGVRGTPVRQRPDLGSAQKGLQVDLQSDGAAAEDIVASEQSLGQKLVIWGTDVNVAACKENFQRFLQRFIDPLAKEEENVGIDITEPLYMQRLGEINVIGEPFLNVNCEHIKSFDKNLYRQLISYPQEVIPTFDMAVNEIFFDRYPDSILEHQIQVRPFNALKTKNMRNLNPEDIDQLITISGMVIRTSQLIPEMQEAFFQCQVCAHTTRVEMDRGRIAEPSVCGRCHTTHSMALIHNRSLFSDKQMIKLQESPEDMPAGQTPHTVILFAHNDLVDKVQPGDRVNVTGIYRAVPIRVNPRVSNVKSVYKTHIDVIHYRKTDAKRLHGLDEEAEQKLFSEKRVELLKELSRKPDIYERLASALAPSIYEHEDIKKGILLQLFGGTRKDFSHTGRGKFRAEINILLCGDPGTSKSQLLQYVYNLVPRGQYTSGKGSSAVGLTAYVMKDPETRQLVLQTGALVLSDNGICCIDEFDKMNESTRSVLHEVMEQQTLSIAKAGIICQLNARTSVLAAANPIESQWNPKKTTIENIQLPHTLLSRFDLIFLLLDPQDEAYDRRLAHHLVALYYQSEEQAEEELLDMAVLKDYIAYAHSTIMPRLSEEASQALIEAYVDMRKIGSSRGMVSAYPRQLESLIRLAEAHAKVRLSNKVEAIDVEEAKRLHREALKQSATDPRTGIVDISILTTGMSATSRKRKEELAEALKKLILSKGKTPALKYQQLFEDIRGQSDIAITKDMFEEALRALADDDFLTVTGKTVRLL

In experiment [2] the target is Ras-related protein Rab-6A (Homo sapiens, UniProt P20340).
Chain of Ras-related protein Rab-6A (P20340 whole entry): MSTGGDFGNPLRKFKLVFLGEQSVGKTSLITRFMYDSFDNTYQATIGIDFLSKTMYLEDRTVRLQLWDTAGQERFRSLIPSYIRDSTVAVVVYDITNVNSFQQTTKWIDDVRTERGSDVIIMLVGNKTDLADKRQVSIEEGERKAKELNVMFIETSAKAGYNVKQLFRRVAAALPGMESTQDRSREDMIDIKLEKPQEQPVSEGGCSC
For experiment [3], the target named is T4, Serine/threonine-protein kinase TBK1 (Homo sapiens, UniProt Q9UHD2).
T4 sequence (Q9UHD2 whole entry): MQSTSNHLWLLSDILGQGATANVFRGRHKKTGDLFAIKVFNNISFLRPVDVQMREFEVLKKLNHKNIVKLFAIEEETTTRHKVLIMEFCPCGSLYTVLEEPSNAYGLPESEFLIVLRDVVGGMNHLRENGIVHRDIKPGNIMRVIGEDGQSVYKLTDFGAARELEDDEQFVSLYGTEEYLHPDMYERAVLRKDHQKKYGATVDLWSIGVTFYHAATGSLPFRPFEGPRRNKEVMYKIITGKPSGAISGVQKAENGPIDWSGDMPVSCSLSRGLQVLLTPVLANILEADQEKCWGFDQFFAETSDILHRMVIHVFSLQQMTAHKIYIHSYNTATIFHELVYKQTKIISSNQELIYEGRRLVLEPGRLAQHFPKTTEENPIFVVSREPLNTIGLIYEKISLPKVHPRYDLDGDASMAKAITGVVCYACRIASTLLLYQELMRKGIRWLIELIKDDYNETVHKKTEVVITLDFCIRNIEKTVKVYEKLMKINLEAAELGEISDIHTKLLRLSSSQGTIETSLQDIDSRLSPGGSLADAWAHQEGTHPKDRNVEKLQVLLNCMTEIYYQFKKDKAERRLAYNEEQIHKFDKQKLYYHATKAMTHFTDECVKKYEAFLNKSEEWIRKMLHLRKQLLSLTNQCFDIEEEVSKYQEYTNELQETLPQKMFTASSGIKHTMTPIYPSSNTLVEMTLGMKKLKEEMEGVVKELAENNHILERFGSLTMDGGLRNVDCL

Another experiment deals with TGF-beta receptor type-2 (Homo sapiens, UniProt P37173).
Chain of TGF-beta receptor type-2 (P37173 whole entry): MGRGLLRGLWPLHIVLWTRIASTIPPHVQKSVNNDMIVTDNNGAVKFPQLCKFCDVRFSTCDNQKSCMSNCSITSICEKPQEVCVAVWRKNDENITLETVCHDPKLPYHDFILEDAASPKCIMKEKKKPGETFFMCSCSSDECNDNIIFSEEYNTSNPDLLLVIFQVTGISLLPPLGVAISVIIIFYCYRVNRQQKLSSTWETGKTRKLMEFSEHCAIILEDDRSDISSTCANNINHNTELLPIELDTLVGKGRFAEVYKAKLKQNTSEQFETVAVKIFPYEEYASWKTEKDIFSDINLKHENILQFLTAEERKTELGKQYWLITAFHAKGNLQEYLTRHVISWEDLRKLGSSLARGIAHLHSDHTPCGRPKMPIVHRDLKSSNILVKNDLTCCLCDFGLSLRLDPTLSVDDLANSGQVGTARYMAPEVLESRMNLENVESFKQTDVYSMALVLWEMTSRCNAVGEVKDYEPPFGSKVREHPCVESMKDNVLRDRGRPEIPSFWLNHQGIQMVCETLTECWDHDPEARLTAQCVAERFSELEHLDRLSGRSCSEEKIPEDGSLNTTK
Experiment [4] concerns the target 5'-AMP-activated protein kinase catalytic subunit alpha-1 (Homo sapiens, UniProt Q13131).
Experiment [5] deals with Epithelial discoidin domain-containing receptor 1 (Homo sapiens, UniProt Q08345).
Chain of Epithelial discoidin domain-containing receptor 1 (Q08345 whole entry, the tested form may be a part): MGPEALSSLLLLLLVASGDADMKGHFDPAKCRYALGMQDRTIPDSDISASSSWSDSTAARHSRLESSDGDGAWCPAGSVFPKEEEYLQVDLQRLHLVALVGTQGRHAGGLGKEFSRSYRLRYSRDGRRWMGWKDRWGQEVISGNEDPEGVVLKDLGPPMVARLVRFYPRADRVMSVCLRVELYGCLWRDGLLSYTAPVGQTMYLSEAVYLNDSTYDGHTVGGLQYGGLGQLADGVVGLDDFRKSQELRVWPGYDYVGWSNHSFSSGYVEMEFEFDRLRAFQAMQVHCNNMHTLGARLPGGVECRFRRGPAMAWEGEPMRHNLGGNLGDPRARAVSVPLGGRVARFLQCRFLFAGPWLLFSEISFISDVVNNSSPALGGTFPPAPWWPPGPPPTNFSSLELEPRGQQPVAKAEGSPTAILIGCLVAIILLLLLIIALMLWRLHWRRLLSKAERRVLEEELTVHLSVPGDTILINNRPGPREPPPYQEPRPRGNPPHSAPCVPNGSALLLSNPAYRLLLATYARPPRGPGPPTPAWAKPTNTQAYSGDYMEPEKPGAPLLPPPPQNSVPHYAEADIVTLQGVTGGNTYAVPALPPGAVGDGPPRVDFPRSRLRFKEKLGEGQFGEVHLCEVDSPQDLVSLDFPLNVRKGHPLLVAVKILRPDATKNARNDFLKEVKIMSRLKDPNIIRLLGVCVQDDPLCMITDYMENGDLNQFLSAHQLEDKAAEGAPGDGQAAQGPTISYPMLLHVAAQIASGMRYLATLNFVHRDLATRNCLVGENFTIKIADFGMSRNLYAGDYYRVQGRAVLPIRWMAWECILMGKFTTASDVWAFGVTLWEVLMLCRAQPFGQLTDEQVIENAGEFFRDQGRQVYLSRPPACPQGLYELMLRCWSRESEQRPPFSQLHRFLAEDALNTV

Chain of Ephrin type-A receptor 4 (P54764 whole entry): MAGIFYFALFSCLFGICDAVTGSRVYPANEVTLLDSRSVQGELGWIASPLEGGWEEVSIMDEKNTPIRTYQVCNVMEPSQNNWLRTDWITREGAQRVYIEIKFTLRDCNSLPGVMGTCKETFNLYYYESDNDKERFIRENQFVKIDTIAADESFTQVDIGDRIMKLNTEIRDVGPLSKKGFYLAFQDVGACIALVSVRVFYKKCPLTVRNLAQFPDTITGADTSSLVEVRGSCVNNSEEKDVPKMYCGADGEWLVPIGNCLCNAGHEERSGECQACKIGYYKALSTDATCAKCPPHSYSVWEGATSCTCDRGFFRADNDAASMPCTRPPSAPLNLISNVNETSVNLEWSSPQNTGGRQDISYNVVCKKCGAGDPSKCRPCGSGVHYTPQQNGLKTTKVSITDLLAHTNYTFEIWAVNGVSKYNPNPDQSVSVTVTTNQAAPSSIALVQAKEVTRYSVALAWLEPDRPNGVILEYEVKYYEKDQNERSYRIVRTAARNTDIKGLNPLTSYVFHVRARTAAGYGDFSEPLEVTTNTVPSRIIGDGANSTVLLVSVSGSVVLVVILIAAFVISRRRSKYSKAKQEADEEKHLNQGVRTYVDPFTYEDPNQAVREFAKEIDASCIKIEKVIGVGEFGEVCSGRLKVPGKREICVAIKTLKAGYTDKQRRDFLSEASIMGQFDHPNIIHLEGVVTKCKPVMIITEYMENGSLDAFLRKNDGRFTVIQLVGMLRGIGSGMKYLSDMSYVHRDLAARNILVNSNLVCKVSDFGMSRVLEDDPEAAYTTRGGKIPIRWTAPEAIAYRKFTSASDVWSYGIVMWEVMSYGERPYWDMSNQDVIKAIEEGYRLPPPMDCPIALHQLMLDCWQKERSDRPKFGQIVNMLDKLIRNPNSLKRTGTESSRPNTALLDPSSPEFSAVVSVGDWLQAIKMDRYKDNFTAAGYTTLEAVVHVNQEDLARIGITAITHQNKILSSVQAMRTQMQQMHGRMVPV
Chain of 5'-AMP-activated protein kinase catalytic subunit alpha-1 (Q13131 whole entry, the tested form may be a part): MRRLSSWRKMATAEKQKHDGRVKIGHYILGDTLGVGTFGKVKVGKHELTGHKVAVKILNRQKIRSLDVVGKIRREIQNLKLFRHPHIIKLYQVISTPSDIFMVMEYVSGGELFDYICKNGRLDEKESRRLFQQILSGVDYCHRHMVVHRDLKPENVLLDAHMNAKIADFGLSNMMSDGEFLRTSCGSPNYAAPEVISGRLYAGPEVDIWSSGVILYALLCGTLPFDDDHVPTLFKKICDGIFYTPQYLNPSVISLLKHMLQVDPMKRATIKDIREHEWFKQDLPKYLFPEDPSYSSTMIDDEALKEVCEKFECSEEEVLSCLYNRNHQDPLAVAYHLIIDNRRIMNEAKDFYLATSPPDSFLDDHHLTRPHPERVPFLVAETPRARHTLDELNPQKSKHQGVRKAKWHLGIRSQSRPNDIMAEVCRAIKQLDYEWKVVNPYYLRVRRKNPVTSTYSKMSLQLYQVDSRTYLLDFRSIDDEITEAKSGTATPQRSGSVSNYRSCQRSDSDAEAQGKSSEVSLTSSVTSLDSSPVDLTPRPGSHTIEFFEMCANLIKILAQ

In the case of `CC[C@@H]1C(=O)N(C)c2cnc(Nc3ccc(C(=O)N[C@H]4CC[C@H](N5CCN(CC6CC6)CC5)CC4)cc3OC)nc2N1C(C)C` [VOLASERTIB], the Kd (on Ephrin type-A receptor 4; at dCTP pyrophosphatase 1; on Activin receptor type-1; in [1]; in experiment [2]; in experiment [3]) was > 30 µM (inactive) in each case. The Kd (on TGF-beta receptor type-2; in [4]; in [5]) was > 30 µM (inactive) each time.
In the case of `Cc1ccc(S(=O)(=O)Nc2nc3ccccc3nc2Nc2ccc3nsnc3c2)cc1`, the Kd (at Ephrin type-A receptor 4; on dCTP pyrophosphatase 1; at Activin receptor type-1; in [1]; in [2]; in experiment [3]) was > 30 µM (inactive) throughout. In addition, the Kd (at TGF-beta receptor type-2; in [4]; in experiment [5]) was > 30 µM (inactive) in each case.
For the molecule `Cn1cc(-c2ccc(F)c(C(F)(F)F)c2)nc1C1CCN(c2ncnc3[nH]ncc23)CC1` [LY-2584702], the Kd (at Ephrin type-A receptor 4; on dCTP pyrophosphatase 1; at Activin receptor type-1; in experiment [2]; in [3]; at TGF-beta receptor type-2) was > 30 µM (inactive) in each case. The Kd in experiment [4] and in [5] was > 30 µM (inactive) in each case.
On to `COc1cc(OC)c(/C=C/S(=O)(=O)Cc2ccc(OC)c(NCC(=O)O)c2)c(OC)c1` [RIGOSERTIB], for which the Kd (on Ephrin type-A receptor 4; on dCTP pyrophosphatase 1; at Activin receptor type-1; in [2]; in [3]; at TGF-beta receptor type-2) was > 30 µM (inactive) each time. The Kd in experiment [4] and in experiment [5] was > 30 µM (inactive) in each case.
Consider `CCn1c(=O)c(-c2cc[nH]n2)cc2c(C)nc(N)nc21` [VOXTALISIB], for which the Kd (on Ephrin type-A receptor 4; at dCTP pyrophosphatase 1; on Activin receptor type-1; in experiment [1]; in [2]; in experiment [3]) was > 30 µM (inactive) throughout. The Kd in experiment [4] and in experiment [5] was > 30 µM (inactive) throughout.
As for `CNC(=O)c1ccc(-c2cnc3ncc(Cc4ccc5ncccc5c4)n3n2)cc1F` [CAPMATINIB], the Kd (on Ephrin type-A receptor 4; on dCTP pyrophosphatase 1; on Activin receptor type-1; in experiment [1]; in [3]; at TGF-beta receptor type-2) was > 30 µM (inactive) throughout. In addition, the Kd in experiment [4] and in experiment [5] was > 30 µM (inactive) in each case.
With `COc1cc(CCc2cc(NC(=O)c3ccc(N4C[C@@H](C)N[C@@H](C)C4)cc3)n[nH]2)cc(OC)c1` [AZD-4547], the Kd (at Ephrin type-A receptor 4; on dCTP pyrophosphatase 1; at Activin receptor type-1; in experiment [1]; in experiment [2]; in experiment [3]) was > 30 µM (inactive) in each case. For the same molecule, the Kd (on TGF-beta receptor type-2; in experiment [4]) was > 30 µM (inactive) each time.
As for `C1=C/COCc2cc(ccc2OCCN2CCCC2)Nc2nccc(n2)-c2cccc(c2)COC/1` [PACRITINIB], the Kd at Ephrin type-A receptor 4 was > 30 µM (inactive); at dCTP pyrophosphatase 1, > 30 µM (inactive); at Activin receptor type-1, 0.022 µM (active); in experiment [2] it was > 30 µM (inactive); in [3], 49.6 µM (active); on TGF-beta receptor type-2 it was > 30 µM (inactive). Besides, the results for the Kd in experiment [4] and in [5] were > 30 µM (inactive) and 71.5 µM (active), respectively.
Take `N[C@@H]1CCCN(c2c(/C=C3\SC(=O)NC3=O)cccc2-c2ccccc2)C1`: the Kd (on Ephrin type-A receptor 4; on dCTP pyrophosphatase 1; at Activin receptor type-1; in experiment [1]; in experiment [2]; in experiment [3]) was > 30 µM (inactive) throughout. The Kd in experiment [4] and in experiment [5] was > 30 µM (inactive) each time.
Turning to `Cc1ccc(NC(=O)c2ccc(CN3CC[C@H](N(C)C)C3)c(C(F)(F)F)c2)cc1Nc1nccc(-c2cncnc2)n1` [BAFETINIB], the Kd on Ephrin type-A receptor 4 was 1.98 µM (active); on dCTP pyrophosphatase 1, > 30 µM (inactive); on Activin receptor type-1 it was > 30 µM (inactive); in [1], > 30 µM (inactive); in [3] it was > 30 µM (inactive); on TGF-beta receptor type-2 it was > 30 µM (inactive). For the same molecule, the Kd in [4] is > 30 µM (inactive); in experiment [5], 0.014 µM (active).
Take `COCCNCc1ccc(-c2cc3nccc(Oc4ccc(NC(=S)NC(=O)Cc5ccc(F)cc5)cc4F)c3s2)nc1` [GLESATINIB]: the Kd (on Ephrin type-A receptor 4; at dCTP pyrophosphatase 1; at Activin receptor type-1; in experiment [1]; in experiment [2]; in [3]) was > 30 µM (inactive) in each case. The Kd (on TGF-beta receptor type-2; in experiment [4]) was > 30 µM (inactive) throughout.
`Cn1cc(-c2ccc3nnc(C(F)(F)c4ccc5ncccc5c4)n3n2)cn1` [JNJ-38877605]: the Kd (at Ephrin type-A receptor 4; on dCTP pyrophosphatase 1; at Activin receptor type-1; in experiment [2]; in experiment [3]; at TGF-beta receptor type-2) was > 30 µM (inactive) in each case. Further, the Kd in experiment [4] and in experiment [5] was > 30 µM (inactive) throughout.
`CN1N=C(N)c2cn([C@@H]3O[C@H](COP(=O)(O)O)[C@@H](O)[C@H]3O)c3ncnc1c23` [TRICIRIBINE PHOSPHATE]: the Kd (at Ephrin type-A receptor 4; on dCTP pyrophosphatase 1; at Activin receptor type-1; in [1]; in [3]; at TGF-beta receptor type-2) was > 30 µM (inactive) throughout. The Kd in experiment [4] and in [5] was > 30 µM (inactive) in each case.
